Values joined by “and” are separate entries in the source; they are usually repeats but may differ in a detail not shown here. Equal entries are not always repeated.
How the values were obtained:
[1] = Dose-range finding embryo-fetal development study; assay type: in vivo; conditions: rabbits
Excerpt: Full guideline-conform reproductive toxicity studies have not been conducted thus far. However, a dose-range finding, embryo-fetal development (EFD) study in rabbits has been conducted in order to confirm the rabbit as relevant reproductive toxicology species.

[2] = tested on: T cell-dependent antibody responses (TDAR); test: Recall T cell-dependent antibody response to KLH; assay type: in vivo, rhesus monkeys; conditions: at second KLH immunization, single 10 mg/kg i.v.
Method: Monkeys were immunized with KLH three times (the first was about 3 weeks prior to dosing, the second was 2 weeks after mAb1 administration, and the third was after complete wash-out of mAb1). […] Once mAb1 was cleared, all animals mounted a full memory antibody response to the third KLH.
In the PK study, CFZ533 was administered to three animals at calculated single doses of 16.2 (5532), 18.5 (5531) and 20 (5530) mg/kg. Blood was sampled for analyses of CFZ533 serum concentrations, numbers of peripheral T and B lymphocytes, and CD40 occupancy on peripheral B cells by CFZ533. For recall TDAR experiments, animals were immunized with keyhole limpet hemocyanin (KLH) in Alum on study days 8 (priming) and 43 (recall; during CFZ533 treatment) respectively. Serum was sampled one day before and 7, 14 and 21 days after priming and recall immunizations. KLH specific IgM/IgG titers were determined with sandwich ELISA using cynomolgus monkey anti-KLH IgM/IgG reference serum as standard. PK assessment was performed as described above. See supplementary material for additional details on the PK and TDAR experiments.
Arrows below the x-axis highlight primary and secondary KLH immunizations. The timing of a single dose of 10 mg/kg CFZ533 is shown above. The asterisks indicate time points at which anti-KLH IgG and/or CFZ533 levels were measured. FIG. 10B. […]

## CFZ533: human anti-CD40 IgG1 monoclonal antibody with Fc-silencing N297A mutation; heavy chain SEQ ID NO: 9, light chain SEQ ID NO: 10
[1]
  Effects on embryo-fetal development: No effects on embryo-fetal development
[2]; 10 mg/kg
  CFZ533 concentration required for complete suppression of recall TDAR: > 40 µg/mL and 30 to 40 µg/mL
[2]; listed as mAb1, 10 mg/kg
  CFZ533 concentration required for complete suppression of recall TDAR: > 40 µg/mL
